Target: Xanthine dehydrogenase/oxidase (Bos taurus, UniProt P80457)
Test: Inhibition of bovine Xanthine oxidase assessed as decrease in uric acid production preincubated […] for 5 mins by spectrophotometry

Xanthine dehydrogenase/oxidase, sequence (P80457 whole entry): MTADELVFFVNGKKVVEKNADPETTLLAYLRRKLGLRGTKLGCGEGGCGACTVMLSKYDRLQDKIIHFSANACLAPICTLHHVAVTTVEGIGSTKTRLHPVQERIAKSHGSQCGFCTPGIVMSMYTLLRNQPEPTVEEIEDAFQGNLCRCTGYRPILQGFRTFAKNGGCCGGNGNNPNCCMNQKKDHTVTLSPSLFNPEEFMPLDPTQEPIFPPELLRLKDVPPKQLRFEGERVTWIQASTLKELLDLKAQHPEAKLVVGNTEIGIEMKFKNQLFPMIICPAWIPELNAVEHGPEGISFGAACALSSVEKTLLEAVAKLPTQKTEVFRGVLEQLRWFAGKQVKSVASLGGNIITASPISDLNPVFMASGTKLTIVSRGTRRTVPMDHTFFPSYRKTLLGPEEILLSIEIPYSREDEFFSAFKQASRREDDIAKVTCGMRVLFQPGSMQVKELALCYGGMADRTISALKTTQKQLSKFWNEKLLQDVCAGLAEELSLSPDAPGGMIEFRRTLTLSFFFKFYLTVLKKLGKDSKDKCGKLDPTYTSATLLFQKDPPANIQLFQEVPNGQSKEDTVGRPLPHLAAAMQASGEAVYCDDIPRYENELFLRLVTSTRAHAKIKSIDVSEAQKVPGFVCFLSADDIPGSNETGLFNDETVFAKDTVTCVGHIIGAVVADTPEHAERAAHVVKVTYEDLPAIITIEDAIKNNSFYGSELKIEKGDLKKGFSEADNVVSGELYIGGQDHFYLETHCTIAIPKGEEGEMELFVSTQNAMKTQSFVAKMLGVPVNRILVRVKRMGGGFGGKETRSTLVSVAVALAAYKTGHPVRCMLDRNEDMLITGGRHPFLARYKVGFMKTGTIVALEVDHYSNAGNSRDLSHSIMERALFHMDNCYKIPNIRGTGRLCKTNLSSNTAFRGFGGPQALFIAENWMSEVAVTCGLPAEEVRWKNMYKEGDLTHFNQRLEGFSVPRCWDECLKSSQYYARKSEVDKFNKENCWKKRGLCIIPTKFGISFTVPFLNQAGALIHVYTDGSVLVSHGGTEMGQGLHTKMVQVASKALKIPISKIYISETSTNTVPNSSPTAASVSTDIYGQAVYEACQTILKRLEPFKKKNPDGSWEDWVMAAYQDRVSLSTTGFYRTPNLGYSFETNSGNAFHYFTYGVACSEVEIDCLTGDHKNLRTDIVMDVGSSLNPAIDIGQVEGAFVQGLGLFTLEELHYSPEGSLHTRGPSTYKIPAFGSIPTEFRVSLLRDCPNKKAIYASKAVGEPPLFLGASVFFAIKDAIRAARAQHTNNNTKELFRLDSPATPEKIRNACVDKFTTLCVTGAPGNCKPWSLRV

IC50 | Structure (SMILES)
76.2 µM | COc1ccc(C2CC(c3ccccc3)=NN2C(C)=O)cc1 (stereo not drawn)
66.5 µM | COc1ccc(C2CC(c3ccc(Br)cc3)=NN2C(C)=O)cc1 (stereo not drawn)
71.3 µM | CC(=O)N1N=C(c2ccc(Br)cc2)CC1c1ccccc1 (stereo not drawn)
74.9 µM | COc1cc(C2CC(c3ccc(Br)cc3)=NN2C(C)=O)cc(OC)c1OC (stereo not drawn)
19.2 µM | CC(=O)N1N=C(c2ccco2)CC1c1ccc(C)cc1 (stereo not drawn)
17.6 µM | CC(=O)N1N=C(c2ccco2)CC1c1ccc(Br)cc1 (stereo not drawn)
70.8 µM | CC(=O)N1N=C(c2ccccc2)CC1c1ccc2c(c1)OCO2 (stereo not drawn)
91.4 µM | CC(=O)N1N=C(c2ccco2)CC1c1ccc2ccccc2c1 (stereo not drawn)
73.6 µM | CC(=O)N1N=C(c2ccccc2)CC1c1ccc(N(C)C)cc1 (stereo not drawn)
55.1 µM | CC(=O)N1N=C(c2ccccc2)CC1c1cccc(Cl)c1Cl (stereo not drawn)
81.2 µM | COc1cc(C2CC(c3ccccc3)=NN2C(C)=O)ccc1O (stereo not drawn)
86.4 µM | COc1cc(C2CC(c3ccccc3)=NN2C(C)=O)cc(OC)c1OC (stereo not drawn)
64.1 µM | COc1ccc(C2CC(c3ccc(Br)cc3)=NN2C(C)=O)cc1OC (stereo not drawn)
51.7 µM | CC(=O)N1N=C(c2ccc(Br)cc2)CC1c1cccc(Cl)c1Cl (stereo not drawn)
66.3 µM | CC(=O)N1N=C(c2ccc(Br)cc2)CC1c1ccc2c(c1)OCO2 (stereo not drawn)
79.1 µM | CC(=O)N1N=C(c2cccc([N+](=O)[O-])c2)CC1c1ccccc1 (stereo not drawn)
73.3 µM | COc1ccc(C2CC(c3cccc([N+](=O)[O-])c3)=NN2C(C)=O)cc1 (stereo not drawn)
75.2 µM | COc1ccc(C2CC(c3cccc([N+](=O)[O-])c3)=NN2C(C)=O)cc1OC (stereo not drawn)
58 µM | CC(=O)N1N=C(c2cccc([N+](=O)[O-])c2)CC1c1cccc(Cl)c1Cl (stereo not drawn)
76.1 µM | CC(=O)N1N=C(c2cccc([N+](=O)[O-])c2)CC1c1ccc2c(c1)OCO2 (stereo not drawn)
41.3 µM | CC(=O)N1N=C(c2cccc3ccccc23)CC1c1ccccc1 (stereo not drawn)
32.2 µM | CC(=O)N1N=C(c2cccc3ccccc23)CC1c1ccc([N+](=O)[O-])cc1 (stereo not drawn)
36.4 µM | CC(=O)N1N=C(c2cccc3ccccc23)CC1c1cccc([N+](=O)[O-])c1 (stereo not drawn)
43.5 µM | COc1ccc(C2CC(c3cccc4ccccc34)=NN2C(C)=O)cc1 (stereo not drawn)
38.7 µM | CC(=O)N1N=C(c2cccc3ccccc23)CC1c1cccc(Br)c1 (stereo not drawn)
37.2 µM | CC(=O)N1N=C(c2cccc3ccccc23)CC1c1ccccc1[N+](=O)[O-] (stereo not drawn)
44.8 µM | COc1ccc(OC)c(C2CC(c3cccc4ccccc34)=NN2C(C)=O)c1 (stereo not drawn)

IC50 | Structure (SMILES)
45.6 µM | COc1ccc(C2CC(c3cccc4ccccc34)=NN2C(C)=O)cc1OC (stereo not drawn)
49.5 µM | COc1cc(C2CC(c3cccc4ccccc34)=NN2C(C)=O)cc(OC)c1OC (stereo not drawn)
46.2 µM | COc1cc(OC)c(C2CC(c3cccc4ccccc34)=NN2C(C)=O)cc1OC (stereo not drawn)
45.7 µM | COc1cc(C2CC(c3cccc4ccccc34)=NN2C(C)=O)ccc1O (stereo not drawn)
34.2 µM | CC(=O)N1N=C(c2cccc3ccccc23)CC1c1cccc(Cl)c1Cl (stereo not drawn)
47 µM | CC(=O)N1N=C(c2cccc3ccccc23)CC1c1ccc2c(c1)OCO2 (stereo not drawn)
> 100 µM | CC(=O)N1N=C(c2cccc3ccccc23)CC1c1ccc2ccccc2c1 (stereo not drawn)
26.4 µM | CC(=O)N1N=C(c2ccco2)CC1c1ccccc1 (stereo not drawn)
14.2 µM | CC(=O)N1N=C(c2ccco2)CC1c1ccccc1[N+](=O)[O-] (stereo not drawn)
13.1 µM | CC(=O)N1N=C(c2ccco2)CC1c1cccc([N+](=O)[O-])c1 (stereo not drawn)
27.2 µM | CC(=O)N1N=C(c2ccco2)CC1c1cccc(O)c1 (stereo not drawn)
12.4 µM | CC(=O)N1N=C(c2ccco2)CC1c1ccc([N+](=O)[O-])cc1 (stereo not drawn)
15.2 µM | CC(=O)N1N=C(c2ccco2)CC1c1ccc(Cl)cc1 (stereo not drawn)
21.3 µM | COc1ccc(C2CC(c3ccco3)=NN2C(C)=O)cc1 (stereo not drawn)
23 µM | CC(=O)N1N=C(c2ccco2)CC1c1ccc(N(C)C)cc1 (stereo not drawn)
27.3 µM | COc1ccc(OC)c(C2CC(c3ccco3)=NN2C(C)=O)c1 (stereo not drawn)
28.7 µM | COc1cc(C2CC(c3ccco3)=NN2C(C)=O)cc(OC)c1OC (stereo not drawn)
29.4 µM | COc1ccc(C2CC(c3ccco3)=NN2C(C)=O)cc1OC (stereo not drawn)
30.2 µM | COc1cc(OC)c(C2CC(c3ccco3)=NN2C(C)=O)cc1OC (stereo not drawn)
26.8 µM | COc1cc(C2CC(c3ccco3)=NN2C(C)=O)ccc1O (stereo not drawn)
14.8 µM | CC(=O)N1N=C(c2ccco2)CC1c1cccc(Cl)c1Cl (stereo not drawn)
28.1 µM | CC(=O)N1N=C(c2ccco2)CC1c1ccc2c(c1)OCO2 (stereo not drawn)
5.3 µM | CC(=O)N1N=C(c2ccco2)CC1c1ccncc1 (stereo not drawn)
> 100 µM | c1ccc(C2=NNC(c3ccccc3)C2)cc1 (stereo not drawn)
61.4 µM | CC(=O)N1N=C(c2ccccc2)CC1c1ccccc1 (stereo not drawn)
83.7 µM | COc1ccc(C2CC(c3ccccc3)=NN2C(C)=O)cc1OC (stereo not drawn)
